Test results taken from ChEMBL document CHEMBL4311972, “Discovery of a benzothiophene-flavonol halting miltefosine and antimonial drug resistance in Leishmania parasites through the application of medicinal chemistry, screening and genomics” (Eur J Med Chem, 2019).
The source made the active and inactive calls. The rule behind the calls is not given here.

Legend:
[1] = Half-life in BALB/c mouse at 1 mg/kg, iv measured upto 72 hrs by snapshot method; assay type: ADME, organism-based; conditions: in vivo
[2] = Toxicity in Syrian hamster infected with Leishmania infantum BCN150 promastigotes assessed as spleen lesions at 40 mg/kg/day, po for 10 days formulated with 30 to 50% v/v cyclodextrin measured under necropsy; assay type: organism-based, Mesocricetus auratus; conditions: in vivo, 240 h
[3] = Toxicity in Syrian hamster infected with Leishmania infantum BCN150 promastigotes assessed as effect on plasma creatinine level at 40 mg/kg/day, po for 10 days formulated with 8% v/v DMSO; assay type: organism-based, Mesocricetus auratus; conditions: in vivo, 240 h
[4] = Toxicity in Syrian hamster infected with Leishmania infantum BCN150 promastigotes assessed as effect on ALT level at 40 mg/kg/day, po for 10 days formulated with 30 to 50% v/v cyclodextrin measured after the last treatment; assay type: organism-based, Mesocricetus auratus; conditions: in vivo, 240 h
[5] = Chemical stability of compound in PBS at 20 uM at pH 8 exposed to 2-mins nitrogen bubbling followed by supplementation with human serum albumin measured for 6 hrs by UV-vis spectrophotometry analysis; assay type: physicochemical
[6] = molecular target: Albumin (Bos taurus, UniProt P02769); experiment: Binding affinity to bovine serum albumin in phosphate buffer assessed as compound lifetime at 530 nm at 5 uM measured at pH 8 by fluorescence emission spectrum analysis; assay type: ADME; conditions: cattle, isolated protein
Sequence of Albumin (Bos taurus, UniProt P02769) (P02769 whole entry): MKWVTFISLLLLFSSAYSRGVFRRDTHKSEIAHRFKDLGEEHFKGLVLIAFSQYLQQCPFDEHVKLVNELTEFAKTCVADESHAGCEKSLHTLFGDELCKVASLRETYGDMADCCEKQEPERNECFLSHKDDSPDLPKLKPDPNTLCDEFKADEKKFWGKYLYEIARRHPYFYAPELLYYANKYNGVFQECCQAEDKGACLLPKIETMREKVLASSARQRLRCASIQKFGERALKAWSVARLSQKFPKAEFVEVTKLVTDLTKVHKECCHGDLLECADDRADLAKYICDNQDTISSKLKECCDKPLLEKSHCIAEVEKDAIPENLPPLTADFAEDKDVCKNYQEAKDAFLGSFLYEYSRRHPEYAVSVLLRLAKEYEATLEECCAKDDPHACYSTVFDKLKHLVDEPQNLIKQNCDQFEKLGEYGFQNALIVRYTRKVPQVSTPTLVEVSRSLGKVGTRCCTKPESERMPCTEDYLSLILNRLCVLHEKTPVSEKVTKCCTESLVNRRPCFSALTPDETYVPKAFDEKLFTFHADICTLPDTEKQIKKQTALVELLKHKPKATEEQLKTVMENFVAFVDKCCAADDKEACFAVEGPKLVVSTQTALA

[7] = test system: Leishmania infantum; experiment: Anti-leishmanial activity against Leishmania infantum BCN150 promastigotes infected in Syrian hamster assessed as decrease in anti-leishmanial IgG level at 40 mg/kg/day, po for 10 days formulated with 30 to 50 % v/v cyclodextrin by ELISA; assay type: functional, organism-based
[8] = Chemical stability of compound in PBS at 20 uM at pH 8 exposed to air bubbling followed by supplementation with human serum albumin measured for 6 hrs by UV-vis spectrophotometry analysis; assay type: physicochemical
[9] = molecular target: T1, Albumin (Homo sapiens, UniProt P02768); experiment: Binding affinity to human serum albumin in phosphate buffer assessed as increase in emission anisotropy at 530 nm at 5 uM measured at pH 8 by fluorescence emission spectrum analysis; assay type: ADME; conditions: isolated protein
T1 sequence (P02768 whole entry): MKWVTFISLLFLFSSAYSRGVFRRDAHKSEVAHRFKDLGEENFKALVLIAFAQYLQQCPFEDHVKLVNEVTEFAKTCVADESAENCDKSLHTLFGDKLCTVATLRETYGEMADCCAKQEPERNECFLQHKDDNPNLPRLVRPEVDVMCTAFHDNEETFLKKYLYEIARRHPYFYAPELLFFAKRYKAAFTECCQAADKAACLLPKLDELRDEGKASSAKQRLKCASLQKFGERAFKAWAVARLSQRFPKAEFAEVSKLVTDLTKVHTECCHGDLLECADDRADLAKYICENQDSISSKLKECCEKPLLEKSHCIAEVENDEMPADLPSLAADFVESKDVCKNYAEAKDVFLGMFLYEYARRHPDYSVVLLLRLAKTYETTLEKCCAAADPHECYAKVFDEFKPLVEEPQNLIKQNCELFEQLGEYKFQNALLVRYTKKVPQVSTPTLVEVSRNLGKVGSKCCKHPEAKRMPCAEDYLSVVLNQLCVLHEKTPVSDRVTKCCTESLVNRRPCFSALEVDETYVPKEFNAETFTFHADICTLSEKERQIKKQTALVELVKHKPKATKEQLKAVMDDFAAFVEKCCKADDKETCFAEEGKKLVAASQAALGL

[10] = molecular target: T1, Albumin; experiment: Binding affinity to human serum albumin in phosphate buffer assessed as increase in emission intensity at 530-550 nm at 5 uM measured at pH 8 at albumin concentration of 2 uM by fluorescence emission spectrum analysis; assay type: ADME; conditions: isolated protein, pH 8, 5 µM
[11] = test system: Leishmania infantum; experiment: Antileishmanial activity against Leishmania infantum amastigotes infected in Syrian hamster assessed as parasite load within liver at 40 mg/kg/day, po for 10 days formulated with 30% v/v cyclodextrin (reference value: 4333333.333 +/- 3444802.849 /g); assay type: functional
[12] = test system: Leishmania infantum; experiment: Antileishmanial activity against Leishmania infantum amastigotes infected in Syrian hamster assessed as parasite load within liver at 40 mg/kg/day, po for 10 days formulated with 50% v/v cyclodextrin (reference value: 5000000.000 +/- 1673320.053/g); assay type: functional
[13] = Chemical stability of compound in PBS assessed as decrease in absorbance at 60 uM at pH 7 to 8 and 25 degC measured within 20 mins under dark conditions by UV-vis spectrophotometry analysis; assay type: physicochemical; conditions: read-out: Drug degradation
[14] = test system: Leishmania donovani; experiment: Antileishmanial activity against Leishmania donovani BPK091 promastigotes transfected with Leishmania donovani BPK190 genomic cosmid DNA assessed as decrease in parasite growth at IC75 concentration incubated for 3 days under selective pressure and selection cycle repeated for 25 passages and measured at 43 to 78 days of selection; assay type: functional, organism-based
[15] = Toxicity in Syrian hamster infected with Leishmania infantum BCN150 promastigotes assessed as spleen weight at 40 mg/kg/day, po for 10 days formulated with 8% v/v DMSO (reference value: 0.182 +/- 0.036 g); assay type: organism-based, Mesocricetus auratus; conditions: in vivo, 240 h
[16] = test system: hERG; experiment: Selectivity ratio of IC50 for human ERG to EC50 for antileishmanial activity against luciferase expressing intracellular amastigote stage of Leishmania infantum infected in human THP1 cells; assay type: toxicity, cell-based
[17] = test system: WI-38; experiment: Cytotoxicity against human WI38 cells incubated for 48 hrs by Celltiter-Glo luminescence assay; assay type: cell-based; conditions: wi-38, 48 h
[18] = test system: Leishmania donovani; experiment: Antileishmanial activity against antimony sensitive Leishmania donovani BPK091 promastigotes infected in C57BL/6 mouse bone marrow-derived macrophages assessed as reduction in parasite load at 10 uM treated with compound at 24 hrs post-infection measured after 72 hrs post infection by q-PCR analysis relative to control; assay type: functional
[19] = molecular target: T2, Beta-casein (Bos taurus, UniProt P02666); experiment: Binding affinity to bovine milk beta-casein in phosphate buffer assessed as compound lifetime at 530 nm at 5 uM measured at pH 8 by fluorescence emission spectrum analysis; assay type: ADME; conditions: cattle
T2 sequence (P02666 whole entry): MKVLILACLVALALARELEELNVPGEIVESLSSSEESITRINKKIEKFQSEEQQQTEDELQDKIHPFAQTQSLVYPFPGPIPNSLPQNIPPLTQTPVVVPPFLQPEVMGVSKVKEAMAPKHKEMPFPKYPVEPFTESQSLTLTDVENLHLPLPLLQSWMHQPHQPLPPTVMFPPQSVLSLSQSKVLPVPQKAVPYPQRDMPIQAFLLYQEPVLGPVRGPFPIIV

[20] = Binding affinity to pepsin in porcine gastric mucosa in phosphate buffer assessed as compound lifetime at 530 nm at 5 uM measured at pH 8 by fluorescence emission spectrum analysis; assay type: ADME, Sus scrofa; conditions: pig
[21] = test system: Leishmania infantum; experiment: Antileishmanial activity against Leishmania infantum amastigotes infected in Syrian hamster assessed as parasite load within liver at 40 mg/kg/day, po for 10 days formulated with 8% v/v DMSO (reference value: 5333333.333 +/- 3011090.611/g); assay type: functional
[22] = test system: Leishmania infantum; experiment: Antileishmanial activity against Leishmania infantum amastigotes infected in Syrian hamster assessed as parasite load within spleen at 40 mg/kg/day, po for 10 days formulated with 8% v/v DMSO (reference value: 9151063.431 +/- 2606154.975/g); assay type: functional
[23] = Toxicity in Syrian hamster infected with Leishmania infantum BCN150 promastigotes assessed as effect on plasma urea level at 40 mg/kg/day, po for 10 days formulated with 8% v/v DMSO; assay type: organism-based, Mesocricetus auratus; conditions: in vivo, 240 h
[24] = Chemical stability of compound in PBS assessed as decrease in absorbance at 20 uM at pH 8 measured after 2 mins nitrogen bubbling by UV-vis spectrophotometry analysis; assay type: physicochemical; conditions: read-out: Drug degradation
[25] = Toxicity in Syrian hamster infected with Leishmania infantum BCN150 promastigotes assessed as effect on ALT level at 20 mg/kg/day, po for 10 days measured after the last treatment; assay type: organism-based, Mesocricetus auratus; conditions: in vivo, 240 h
[26] = Toxicity in Syrian hamster infected with Leishmania infantum BCN150 promastigotes assessed as itching effect at 20 mg/kg/day, po for 10 days measured daily; assay type: organism-based, Mesocricetus auratus; conditions: in vivo, 240 h
[27] = Toxicity in Syrian hamster infected with Leishmania infantum BCN150 promastigotes assessed as effect on plasma creatinine level at 20 mg/kg/day, po for 10 days measured after the last treatment; assay type: organism-based, Mesocricetus auratus; conditions: in vivo, 240 h
[28] = Plasma concentration in syrian hamster infected with Leishmania infantum BCN150 promastigote at 20 mg/kg/day, po for 10 days; assay type: ADME, organism-based, Mesocricetus auratus
[29] = Toxicity in Syrian hamster infected with Leishmania infantum BCN150 promastigotes assessed as liver lesions at 20 mg/kg/day, po for 10 days; assay type: organism-based, Mesocricetus auratus; conditions: in vivo, 240 h
[30] = Toxicity in Syrian hamster infected with Leishmania infantum BCN150 promastigotes assessed as distress effect at 20 mg/kg/day, po for 10 days measured daily; assay type: organism-based, Mesocricetus auratus; conditions: in vivo, 240 h

Q: With COc1ccc2oc(-c3csc4ccccc34)c(O)c(=O)c2c1 as the molecule, how does the half-life [1] read?
A: 63.2 h

Q: What about the Activity [2] of the same molecule?
A: Non-Toxic

Q: What about the Activity [3] of the same molecule?
A: Non-Toxic

Q: What about the Activity [4] of the same molecule?
A: Non-Toxic

Q: What about the Stability [5] of the same molecule?
A: Stable

Q: What about the Time [6] of the same molecule?
A: 5.5 nanoseconds

Q: And the inhibition [7]?
A: Active

Q: What about the Stability [8] of the same molecule?
A: Stable

Q: And the Activity [9]?
A: Active

Q: And the Activity [10]?
A: 50%

Q: And the Activity [11]?
A: 3428571.429 g⁻¹

Q: And the Activity [12]?
A: 4000000 g⁻¹

Q: What about the degraded at 20 min, 60 µM [13] of the same molecule?
A: 50%

Q: And the inhibition [14]?
A: Active

Q: And the Activity [15]?
A: 0.19 g

Q: And the selectivity ratio [16]?
A: 50

Q: And the Activity [17]?
A: Non-Toxic

Q: And the inhibition at 10 µM [18]?
A: 69%

Q: What about the Time [19] of the same molecule?
A: 5.5 nanoseconds

Q: And the Time [20]?
A: 5.5 nanoseconds

Q: What about the Activity [21] of the same molecule?
A: 4285714.286 g⁻¹

Q: What about the Activity [22] of the same molecule?
A: 6785423.957 g⁻¹

Q: What about the Activity [23] of the same molecule?
A: Non-Toxic

Q: What about the degraded at 2 min, 20 µM [24] of the same molecule?
A: > 90%

Q: With CCCCCCCCCCCCCCCCOP(=O)([O-])OCC[N+](C)(C)C [MILTEFOSINE] as the molecule, how does the Activity [25] read?
A: Non-Toxic

Q: And the Activity [26]?
A: Toxic

Q: And the Activity [27]?
A: Non-Toxic

Q: And the concentration at 240 h [28]?
A: 59.3 µM

Q: And the Activity [29]?
A: Non-Toxic

Q: And the Activity [30]?
A: Toxic
